Measurements published in patent publication US20250109127A1, “METHODS OF USE OF PHENOXYPROPYLAMINE COMPOUNDS TO TREAT DEPRESSION” (Minerva Neurosciences, Inc., priority 2013, published 2025).
“Also recorded” adds a separate entry of the source. Counter-ions that a name gives are not always drawn.

Tests used:
5-HTT = 5-HTT (Homo sapiens, UniProt P31645); test: Receptor binding, 5-HTT
[1] = tested on: animals exposed to chronic mild stress; test: Novel object recognition test after CMS and treatment withdrawal; type: in vivo, rat
Excerpt: (§1) After completion of the administration and withdrawal period, all control and stressed animals were placed in an open field (100 cm in diameter, 35 cm high) and allowed to explore two identical objects (cylinder-shaped object with walls painted white, 7 cm in diameter, 11 cm high) for the time required to complete 15 s of exploration of either object. For the retention trial conducted one hour later, one of the objects presented previously was replaced with a novel object (prism-shaped object with walls painted black, 5 cm wide, 14 cm high). Rats were returned to the open field for 5 min and the duration of exploration (i.e. sitting in close proximity to the objects, sniffing or touching them) of each object was measured separately by a trained observer. The data were calculated according to the following formula: [time of novel object exploration divided by time of novel plus familiar object exploration multiplied by 100]. The CMS and NOR data were analyzed by multiple analyses of variance with three between-subjects factors (stress/control, drug treatments and intakes in successive sucrose tests). The Fisher's LSD test was used for the post-hoc comparisons of means.

[2] = tested on: animals exposed to chronic mild stress; test: Chronic mild stress (CMS) model, consumption of 1% sucrose solution; type: in vivo, rat; settings: for effect on sucrose intake one week after cessation of treatments: stressed animals
Procedure: Male Wistar rats (Charles River, Germany) were brought into the laboratory one month before the start of the experiment. Except as described below, the animals were singly housed with food and water freely available, and were maintained on a 12-h light/dark cycle, in a constant temperature (22±2° C.) and humidity (50±5%) conditions.
After a period of 2 weeks of adaptation to laboratory and housing conditions, the animals were first trained to consume a 1% sucrose solution; training consisted of nine 1 h baseline tests in which sucrose was presented, in the home cage, following 14 h food and water deprivation; the sucrose intake was measured by weighing pre-weighed bottles containing the sucrose solution, at the end of the test. Subsequently, the sucrose consumption was monitored, under similar conditions, at weekly intervals throughout the whole experiment.
On the basis of their sucrose intakes in the final baseline test, the animals were divided into two matched groups. One group of animals was subjected to the chronic mild stress procedure for a period of 8 consecutive weeks. Each week of stress regime consisted of: two periods of food or water deprivation, two periods of 45 degree cage tilt, two periods of intermittent illumination (lights on and off every 2 h), two periods of soiled cage (250 ml water in sawdust bedding), one period of paired housing, two periods of low intensity stroboscopic illumination (150 flashes/min), and three periods of no stress. All stressors were 10-14 h of duration and were applied individually and continuously, day and night. Control animals were housed in separate rooms and had no contact with the stressed animals. They were deprived of food and water for the 14 h preceding each sucrose test, but otherwise food and water were freely available in the home cage.
On the basis of their sucrose intakes following initial 2 weeks of stress, both the stressed and the control groups were each divided further into matched subgroups (n=8), and for subsequent five weeks they received once daily intraperitoneal injections of vehicle (0.5% hydroxypropylmethylcellulose, 1 ml/kg), SON-117 (0.001, 0.01, 0.1 and 1 mg/kg) or imipramine (10 mg/kg) as the reference treatment. The drugs were administered at approx. 10:00 AM and the weekly sucrose tests were carried out 24 h following the last drug injections. After five weeks all treatments were terminated and one additional sucrose test was carried out after one week of withdrawal. Stress was continued throughout the period of treatment and withdrawal.
as §1

Sequence of 5-HTT (P31645 whole entry, species assumed): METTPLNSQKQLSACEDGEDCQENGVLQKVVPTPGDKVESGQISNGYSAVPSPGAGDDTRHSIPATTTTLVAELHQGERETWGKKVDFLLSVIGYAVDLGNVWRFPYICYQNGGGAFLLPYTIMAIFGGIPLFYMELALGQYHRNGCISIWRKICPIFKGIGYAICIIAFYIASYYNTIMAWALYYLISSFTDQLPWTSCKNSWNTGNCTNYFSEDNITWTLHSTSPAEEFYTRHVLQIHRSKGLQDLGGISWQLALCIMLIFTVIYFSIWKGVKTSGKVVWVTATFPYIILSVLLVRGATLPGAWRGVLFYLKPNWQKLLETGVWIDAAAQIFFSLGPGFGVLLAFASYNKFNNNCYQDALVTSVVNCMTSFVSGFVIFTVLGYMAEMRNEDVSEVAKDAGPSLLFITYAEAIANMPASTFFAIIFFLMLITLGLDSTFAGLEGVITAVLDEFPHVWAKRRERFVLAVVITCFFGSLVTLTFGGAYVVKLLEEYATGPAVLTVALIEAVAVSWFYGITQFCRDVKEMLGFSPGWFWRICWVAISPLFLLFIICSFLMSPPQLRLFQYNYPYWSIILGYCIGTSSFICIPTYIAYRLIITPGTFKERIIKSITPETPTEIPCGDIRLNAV

Cc1nnc(-c2cc3c(OC[C@@H](O)CN4CCC(c5ccc(Cl)c(Cl)c5)CC4)cccc3o2)o1 [SON-117, (S)-1-(4-(3,4-dichlorophenyl)piperidino)-3-(2-(5-methyl-1,3,4-oxadiazol-2-yl)benzo(b)furan-4-yloxy)-2-propanol hydrochloride]
affinity, 5-HTT binding (5-HTT): high affinity
recognition index in stressed animals ([1]; SON-117 0.001, 0.01 and 0.1 mg/kg, one week after withdrawal): restored
effect against the CMS-induced deficit in the novel object recognition ([1]; SON-117 1 mg/kg, stressed animals): ineffective
recognition index in control animals ([1]; SON-117 all doses (0.001-1 mg/kg IP), one week after withdrawal): no significant effect
dose at which rapid-onset normalization of sucrose intake was observed (as low as) ([2]; CMS model): 1 µg/kg
effect on sucrose intake one week after cessation of treatments ([2]; SON-117 0.001 mg/kg): maintained
time at which increase of sucrose consumption in stressed animals reached significance vs Week 0 ([2]; SON-117 0.001 and 0.01 mg/kg IP (only these doses significant vs Week 0)): first week
onset of action: enhancement of sucrose intakes reached statistical significance ([2]; SON-117 0.001 and 1.0 mg/kg): first week
effect on sucrose intake one week after cessation of treatments ([2]; SON-117 1 mg/kg): abolished
effectiveness in the CMS model ([2]; SON-117 0.01 and 0.1 mg/kg): less effective than imipramine
magnitude of action in the CMS model ([2]; SON-117 most active doses (0.001 and 1.0 mg/kg)): comparable to that of imipramine
sucrose intake in control animals, compared to vehicle ([2]; once daily IP for five weeks, imipramine 10 mg/kg, SON-117 all doses (0.001, 0.01, 0.1 and 1 mg/kg)): no significant effect
sucrose consumption in stressed animals, compared to vehicle ([2]; once daily IP for five weeks, imipramine 10 mg/kg, SON-117 all four doses (0.001-1 mg/kg), hydrochloride): significant effects; also recorded: enhanced
